Results from PubChem BioAssay AID1259407 (Chemical Carcinogenesis Research Information System (CCRIS), 2018).
The source made the active and inactive calls. How the calls were made is not given here.

System: CCRIS mutagenicity, Ames/micronucleus/aberration tests
Test: CCRIS mutagenicity studies
[1] = Test System: AMES SALMONELLA TYPHIMURIUM, Strain/Indicator: TA98, Metabolic Activation: NONE, Method: PREINCUBATION
[2] = Test System: AMES SALMONELLA TYPHIMURIUM, Strain/Indicator: TA100, Metabolic Activation: NONE, Method: PREINCUBATION
[3] = Test System: AMES SALMONELLA TYPHIMURIUM, Strain/Indicator: TA1535, Metabolic Activation: NONE, Method: PREINCUBATION
[4] = Test System: AMES SALMONELLA TYPHIMURIUM, Strain/Indicator: TA1537, Metabolic Activation: NONE, Method: PREINCUBATION
[5] = Test System: AMES SALMONELLA TYPHIMURIUM, Strain/Indicator: TA97, Metabolic Activation: NONE, Method: PREINCUBATION

## COc1ccc2cc1Oc1ccc(cc1)C[C@H]1c3c(cc4c(c3Oc3cc5c(cc3OC)CCN(C)[C@@H]5C2)OCO4)CCN1C
[1]
  mutagenic call: inactive; negative
Test System: AMES SALMONELLA TYPHIMURIUM, Strain/Indicator: TA98, Metabolic Activation: RAT LIVER S-9, PHENOBARBITAL, 5,6-BENZOFLAVONE, Method: PREINCUBATION
  mutagenic call: active; positive
[2]
  mutagenic call: inactive; negative
Test System: AMES SALMONELLA TYPHIMURIUM, Strain/Indicator: TA100, Metabolic Activation: RAT LIVER S-9, PHENOBARBITAL, 5,6-BENZOFLAVONE, Method: PREINCUBATION
  mutagenic call: active; positive
[3]
  mutagenic call: inactive; negative
Test System: AMES SALMONELLA TYPHIMURIUM, Strain/Indicator: TA1535, Metabolic Activation: RAT LIVER S-9, PHENOBARBITAL, 5,6-BENZOFLAVONE, Method: PREINCUBATION
  mutagenic call: active; positive
[4]
  mutagenic call: inactive; negative
Test System: AMES SALMONELLA TYPHIMURIUM, Strain/Indicator: TA1537, Metabolic Activation: RAT LIVER S-9, PHENOBARBITAL, 5,6-BENZOFLAVONE, Method: PREINCUBATION
  mutagenic call: active; positive
Test System: ESCHERICHIA COLI, Strain/Indicator: WP2 UVR A, Metabolic Activation: NONE, Method: PREINCUBATION
  mutagenic call: inactive; negative
Test System: ESCHERICHIA COLI, Strain/Indicator: WP2 UVR A, Metabolic Activation: RAT LIVER S-9, PHENOBARBITAL, 5,6-BENZOFLAVONE, Method: PREINCUBATION
  mutagenic call: inactive; negative
Test System: UDS RAT HEPATOCYTES, Strain/Indicator: THYMIDINE INCORPORATION, Metabolic Activation: NONE, Method: AUTORADIOGRAPHY
  mutagenic call: active; positive

## O=[N+]([O-])c1cc2[nH]c3ccc4ccccc4c3c2c2cccc(O)c12
Test System: AMES SALMONELLA TYPHIMURIUM, Strain/Indicator: TA98, Metabolic Activation: NONE, Method: STANDARD PLATE
  mutagenic call: active; positive
Test System: AMES SALMONELLA TYPHIMURIUM, Strain/Indicator: TA98, Metabolic Activation: RAT, LIVER, S-9, 3-METHYLCHOLANTHRENE, Method: STANDARD PLATE
  mutagenic call: active; positive
Test System: AMES SALMONELLA TYPHIMURIUM, Strain/Indicator: TA100, Metabolic Activation: NONE, Method: STANDARD PLATE
  mutagenic call: active; positive
Test System: AMES SALMONELLA TYPHIMURIUM, Strain/Indicator: TA100, Metabolic Activation: RAT, LIVER, S-9, 3-METHYLCHOLANTHRENE, Method: STANDARD PLATE
  mutagenic call: active; positive

## O=[N+]([O-])c1ccc2c3c1ccc1cccc(c13)[C@@H](O)[C@@H]2O
[1]
  mutagenic call: active; positive
Test System: AMES SALMONELLA TYPHIMURIUM, Strain/Indicator: TA98, Metabolic Activation: RAT, LIVER, S-9, AROCLOR 1254, Method: PREINCUBATION
  mutagenic call: active; positive
[2]
  mutagenic call: active; positive
Test System: AMES SALMONELLA TYPHIMURIUM, Strain/Indicator: TA100, Metabolic Activation: RAT, LIVER, S-9, AROCLOR 1254, Method: PREINCUBATION
  mutagenic call: active; positive

## OCc1ccc(-c2nccc3c2[nH]c2ccccc23)o1
[2]
  mutagenic call: active; positive

## O=C(Cl)c1ccccc1[N+](=O)[O-]
Test System: AMES SALMONELLA TYPHIMURIUM, Strain/Indicator: TA97, Metabolic Activation: HAMSTER, LIVER, S-9, AROCLOR 1254 (10%), Method: PREINCUBATION
  mutagenic call: active; positive
[5]
  mutagenic call: active; positive
Test System: AMES SALMONELLA TYPHIMURIUM, Strain/Indicator: TA97, Metabolic Activation: RAT, LIVER, S-9, AROCLOR 1254 (10%), Method: PREINCUBATION
  mutagenic call: active; positive
Test System: AMES SALMONELLA TYPHIMURIUM, Strain/Indicator: TA98, Metabolic Activation: HAMSTER, LIVER, S-9, AROCLOR 1254 (10%), Method: PREINCUBATION
  mutagenic call: active; positive
Test System: AMES SALMONELLA TYPHIMURIUM, Strain/Indicator: TA98, Metabolic Activation: RAT, LIVER, S-9, AROCLOR 1254 (10%), Method: PREINCUBATION
  mutagenic call: active; positive
Test System: AMES SALMONELLA TYPHIMURIUM, Strain/Indicator: TA98, Metabolic Activation: RAT, LIVER, S-9, KANECHLOR 500, Method: PREINCUBATION
  mutagenic call: active; positive
Test System: AMES SALMONELLA TYPHIMURIUM, Strain/Indicator: TA100, Metabolic Activation: HAMSTER, LIVER, S-9, AROCLOR 1254 (10%), Method: PREINCUBATION
  mutagenic call: active; positive
[2]
  mutagenic call: active; positive
Test System: AMES SALMONELLA TYPHIMURIUM, Strain/Indicator: TA100, Metabolic Activation: RAT, LIVER, S-9, AROCLOR 1254 (10%), Method: PREINCUBATION
  mutagenic call: active; positive
Test System: AMES SALMONELLA TYPHIMURIUM, Strain/Indicator: TA100, Metabolic Activation: RAT, LIVER, S-9, KANECHLOR 500, Method: PREINCUBATION
  mutagenic call: active; positive
Test System: AMES SALMONELLA TYPHIMURIUM, Strain/Indicator: TA1535, Metabolic Activation: HAMSTER, LIVER, S-9, AROCLOR 1254 (10%), Method: PREINCUBATION
  mutagenic call: inactive; negative
[3]
  mutagenic call: inactive; negative
Test System: AMES SALMONELLA TYPHIMURIUM, Strain/Indicator: TA1535, Metabolic Activation: RAT, LIVER, S-9, AROCLOR 1254 (10%), Method: PREINCUBATION
  mutagenic call: inactive; negative

## CCCCCCCCCCCCCCCCCCCC
Test System: AMES SALMONELLA TYPHIMURIUM, Strain/Indicator: TA97, Metabolic Activation: HAMSTER, LIVER, S-9, AROCLOR 1254 (10 OR 30%), Method: PREINCUBATION
  mutagenic call: inactive; negative
[5]
  mutagenic call: inactive; negative
Test System: AMES SALMONELLA TYPHIMURIUM, Strain/Indicator: TA97, Metabolic Activation: RAT, LIVER, S-9, AROCLOR 1254 (10 OR 30%), Method: PREINCUBATION
  mutagenic call: inactive; negative
Test System: AMES SALMONELLA TYPHIMURIUM, Strain/Indicator: TA98, Metabolic Activation: HAMSTER, LIVER, S-9, AROCLOR 1254 (10 OR 30%), Method: PREINCUBATION
  mutagenic call: inactive; negative
[1]
  mutagenic call: inactive; negative
Test System: AMES SALMONELLA TYPHIMURIUM, Strain/Indicator: TA98, Metabolic Activation: RAT, LIVER, S-9, AROCLOR 1254 (10 OR 30%), Method: PREINCUBATION
  mutagenic call: inactive; negative
Test System: AMES SALMONELLA TYPHIMURIUM, Strain/Indicator: TA100, Metabolic Activation: HAMSTER, LIVER, S-9, AROCLOR 1254 (10 OR 30%), Method: PREINCUBATION
  mutagenic call: inactive; negative
[2]
  mutagenic call: inactive; negative
Test System: AMES SALMONELLA TYPHIMURIUM, Strain/Indicator: TA100, Metabolic Activation: RAT, LIVER, S-9, AROCLOR 1254 (10 OR 30%), Method: PREINCUBATION
  mutagenic call: inactive; negative
Test System: AMES SALMONELLA TYPHIMURIUM, Strain/Indicator: TA1535, Metabolic Activation: HAMSTER, LIVER, S-9, AROCLOR 1254 (10 OR 30%), Method: PREINCUBATION
  mutagenic call: inactive; negative
[3]
  mutagenic call: inactive; negative
Test System: AMES SALMONELLA TYPHIMURIUM, Strain/Indicator: TA1535, Metabolic Activation: RAT, LIVER, S-9, AROCLOR 1254 (10 OR 30%), Method: PREINCUBATION
  mutagenic call: inactive; negative
Test System: AMES SALMONELLA TYPHIMURIUM, Strain/Indicator: TA1537, Metabolic Activation: HAMSTER, LIVER, S-9, AROCLOR 1254 (30%), Method: PREINCUBATION
  mutagenic call: inactive; negative
[4]
  mutagenic call: inactive; negative
Test System: AMES SALMONELLA TYPHIMURIUM, Strain/Indicator: TA1537, Metabolic Activation: RAT, LIVER, S-9, AROCLOR 1254 (30%), Method: PREINCUBATION
  mutagenic call: inactive; negative
